In article PMC5848165 (Toxins, 2018):
“Also recorded” adds a separate entry of the source. Residues, ends and D or L forms follow the SMILES beside them.

Experiments:
Nav1.5 = test: Whole-cell patch clamp, WT Nav1.5 in HEK293 cells; format: cell-based, rat; details: 1 µM, −10 mV from −80 mV
Source text: Nine sodium channel subtypes have been identified and classified as TTX-S (Nav1.1–Nav1.4, Nav1.6, and Nav1.7) or TTX-R types (Nav1.5, Nav1.8, and Nav1.9). […] However, the subtype selectivity of JZTX-34 on the subtype of sodium channel is still unknown. In this work, effects of JZTX-34 on VGSC subtypes (Nav1.1–Nav1.8) were examined. Nav1.1–Nav1.7 were transfected into HEK293 cells and Nav1.8 currents were expressed in ND cells. Inward sodium currents were elicited by a 50 ms depolarizing potential to −10 mV from a holding potential of −80 mV every 5 s. […] No effects on other sodium channel subtypes were found (Nav1.1, Nav1.2, Nav1.4–Nav1.6, and Nav1.8) (Figure S2). […]
(§1) The HEK293T cells were maintained in standard culture conditions (5% CO2 and 37 °C). […] After culturing for 36–72 h, cells with obvious green fluorescence were selected for sodium currents recordings the internal solution for sodium currents recording that contained (in mM) 140 CsF, 5 NaCl, 10 HEPES, 3 Na2-ATP, and 10 EGTA. […]
(§2) Sodium currents were recorded from DRG, HEK293, and ND cells by the whole-cell patch-clamp technique at 25 °C. […] Experiments date were acquired from whole-cell Axon 700B patch clamp amplifier (Molecular Devices, Sunnyvale, CA, USA) and analyzed by the program Clampfit10.0 (Molecular Devices, Sunnyvale, CA, USA) and Sigmaplot. […]

Nav1.6 = test: Whole-cell patch clamp, Nav1.6 in HEK293 cells; format: cell-based; details: 1 µM, −10 mV from −80 mV
Source text: Nine sodium channel subtypes have been identified and classified as TTX-S (Nav1.1–Nav1.4, Nav1.6, and Nav1.7) or TTX-R types (Nav1.5, Nav1.8, and Nav1.9). […] However, the subtype selectivity of JZTX-34 on the subtype of sodium channel is still unknown. In this work, effects of JZTX-34 on VGSC subtypes (Nav1.1–Nav1.8) were examined. Nav1.1–Nav1.7 were transfected into HEK293 cells and Nav1.8 currents were expressed in ND cells. Inward sodium currents were elicited by a 50 ms depolarizing potential to −10 mV from a holding potential of −80 mV every 5 s. […] No effects on other sodium channel subtypes were found (Nav1.1, Nav1.2, Nav1.4–Nav1.6, and Nav1.8) (Figure S2).
as §1, with “°C). Then, 10% fetal bovine serum was added to Dulbecco’s modified Eagle’s medium.” for “°C).”
as §2

Nav1.5 R800D = target: T1, Nav1.5 R800D (Rattus norvegicus, UniProt P15389, R801D); test: Whole-cell patch clamp, Nav1.5 mutant R800D in HEK293 cells; format: cell-based; details: 1 µM
T1 construct: expressed in transfected cells; host or cells: HEK293 (HEK293T) cells, transient
T1 sequence (Q07699 19-218): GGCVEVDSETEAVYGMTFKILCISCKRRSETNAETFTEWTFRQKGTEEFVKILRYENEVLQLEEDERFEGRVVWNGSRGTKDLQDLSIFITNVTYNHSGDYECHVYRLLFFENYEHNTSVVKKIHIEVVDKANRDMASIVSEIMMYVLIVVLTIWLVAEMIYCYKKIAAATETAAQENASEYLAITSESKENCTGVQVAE
T1 sequence (P15389 whole entry R801D): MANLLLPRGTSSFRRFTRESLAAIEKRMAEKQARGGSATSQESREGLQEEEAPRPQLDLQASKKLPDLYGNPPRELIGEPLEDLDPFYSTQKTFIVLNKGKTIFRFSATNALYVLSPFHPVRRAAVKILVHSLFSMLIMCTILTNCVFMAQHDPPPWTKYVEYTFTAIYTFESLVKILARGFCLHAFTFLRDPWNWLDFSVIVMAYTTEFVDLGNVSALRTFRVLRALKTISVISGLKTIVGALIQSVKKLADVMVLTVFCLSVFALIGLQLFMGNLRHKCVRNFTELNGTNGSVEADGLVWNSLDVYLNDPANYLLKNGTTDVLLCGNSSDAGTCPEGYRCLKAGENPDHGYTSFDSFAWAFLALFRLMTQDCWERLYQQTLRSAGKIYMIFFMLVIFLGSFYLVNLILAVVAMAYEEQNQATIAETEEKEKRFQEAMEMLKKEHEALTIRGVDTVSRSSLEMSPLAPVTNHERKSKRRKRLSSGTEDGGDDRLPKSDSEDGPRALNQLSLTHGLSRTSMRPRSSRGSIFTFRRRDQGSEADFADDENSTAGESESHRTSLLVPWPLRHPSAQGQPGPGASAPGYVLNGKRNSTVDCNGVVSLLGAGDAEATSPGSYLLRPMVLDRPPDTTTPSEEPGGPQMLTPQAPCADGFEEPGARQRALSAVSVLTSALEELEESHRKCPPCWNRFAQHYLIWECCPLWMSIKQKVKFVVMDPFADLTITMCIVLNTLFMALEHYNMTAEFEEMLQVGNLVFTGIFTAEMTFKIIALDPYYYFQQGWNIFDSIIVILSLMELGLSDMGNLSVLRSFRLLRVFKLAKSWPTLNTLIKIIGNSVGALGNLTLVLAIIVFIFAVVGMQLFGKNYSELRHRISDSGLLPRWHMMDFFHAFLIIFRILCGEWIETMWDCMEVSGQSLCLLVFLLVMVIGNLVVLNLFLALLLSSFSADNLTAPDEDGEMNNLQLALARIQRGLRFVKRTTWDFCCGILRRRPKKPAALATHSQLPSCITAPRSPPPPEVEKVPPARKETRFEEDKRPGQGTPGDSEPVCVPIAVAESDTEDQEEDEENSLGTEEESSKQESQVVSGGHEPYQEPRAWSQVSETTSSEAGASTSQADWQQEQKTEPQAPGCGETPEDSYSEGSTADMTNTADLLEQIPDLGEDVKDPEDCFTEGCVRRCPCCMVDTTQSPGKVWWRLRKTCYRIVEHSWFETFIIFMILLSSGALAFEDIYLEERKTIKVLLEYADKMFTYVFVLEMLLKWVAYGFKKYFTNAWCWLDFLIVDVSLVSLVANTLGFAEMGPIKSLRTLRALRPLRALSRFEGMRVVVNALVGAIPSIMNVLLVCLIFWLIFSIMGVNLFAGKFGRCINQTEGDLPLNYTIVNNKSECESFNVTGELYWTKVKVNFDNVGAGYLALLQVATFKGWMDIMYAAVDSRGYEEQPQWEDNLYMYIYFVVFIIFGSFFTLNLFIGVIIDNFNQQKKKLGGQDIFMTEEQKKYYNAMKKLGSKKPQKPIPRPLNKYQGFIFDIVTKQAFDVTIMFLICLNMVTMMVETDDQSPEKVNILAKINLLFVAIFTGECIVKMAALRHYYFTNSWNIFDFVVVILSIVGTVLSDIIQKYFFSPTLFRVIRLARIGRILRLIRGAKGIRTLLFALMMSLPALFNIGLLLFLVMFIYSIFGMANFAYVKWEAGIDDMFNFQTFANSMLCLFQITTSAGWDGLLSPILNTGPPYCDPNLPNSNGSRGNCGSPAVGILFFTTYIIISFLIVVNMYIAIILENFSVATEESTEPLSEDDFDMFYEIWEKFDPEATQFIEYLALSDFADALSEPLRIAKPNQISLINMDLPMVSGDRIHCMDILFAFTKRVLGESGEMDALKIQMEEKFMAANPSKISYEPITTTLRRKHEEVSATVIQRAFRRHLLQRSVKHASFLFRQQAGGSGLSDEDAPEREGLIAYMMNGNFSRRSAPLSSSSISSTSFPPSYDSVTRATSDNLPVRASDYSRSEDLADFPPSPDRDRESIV
Source text: We next investigated the critical residues in DIIS3-S4 linker that determined the sensitivity of Nav1.7 to JZTX-34. An acidic residue, D816, is present in the DIIS3-S4 linker of Nav1.7, while the corresponding residue in Nav1.5 is an alkaline amino acid, R800. To determine whether the acidic residue D816 occupies an important role in toxin binding, we constructed two mutants: D816R of Nav1.7 and R800D of Nav1.5. One µM of JZTX-34 inhibited 54.3 ± 5.2% of WT Nav1.7 currents (Figure 4A), but only 16.8 ± 4.6% currents of D816R were inhibited at the same concentration (Figure 4B). […]
as §1, §2
Data from Axon 700B patch clamp were analyzed by Clampfit10.0 (Molecular Devices, Sunnyvale, CA, USA). […]

CC(C)C[C@@H]1NC(=O)[C@H](Cc2c[nH]c3ccccc23)NC(=O)[C@H](CCC(=O)O)NC(=O)[C@H](CCCNC(=N)N)NC(=O)[C@@H](NC(=O)[C@H](C)N)CSSC[C@@H]2NC(=O)[C@@H]3CSSC[C@@H](C(=O)N[C@H](C(=O)N[C@@H](Cc4c[nH]c5ccccc45)C(=O)N[C@@H](CC(=O)O)C(=O)N[C@@H](Cc4c[nH]c5ccccc45)C(=O)N[C@H](C(=O)N[C@H](C(=O)O)C(C)C)[C@@H](C)O)C(C)C)NC(=O)[C@H](Cc4c[nH]cn4)NC(=O)[C@H](Cc4ccc(O)cc4)NC(=O)[C@@H]4CCCN4C(=O)[C@H](Cc4c[nH]c5ccccc45)NC(=O)[C@H](CCCCN)NC(=O)[C@H](CCCCN)NC(=O)[C@H](CCCNC(=N)N)NC(=O)[C@H](CSSC[C@H](NC(=O)CNC(=O)CNC1=O)C(=O)N[C@@H](CO)C(=O)N[C@@H](CCCCN)C(=O)N[C@@H](CC(=O)O)C(=O)N[C@@H](C)C(=O)N[C@@H](CC(=O)O)C(=O)N3)NC(=O)[C@H](CCC(=O)O)NC(=O)[C@H](CC(C)C)NC(=O)[C@H](Cc1c[nH]cn1)NC(=O)[C@H](C)NC2=O [JZTX-34, Jingzhaotoxin-34] (HELM PEPTIDE1{A.C.R.E.W.L.G.G.C.S.K.D.A.D.C.C.A.H.L.E.C.R.K.K.W.P.Y.H.C.V.W.D.W.T.V}$PEPTIDE1,PEPTIDE1,2:R3-16:R3|PEPTIDE1,PEPTIDE1,9:R3-21:R3|PEPTIDE1,PEPTIDE1,15:R3-29:R3$$$V2.0; N-terminus and C-terminus assumed)
effect on Nav1.5 currents (Nav1.5): No effects; also recorded: resistant | effect on Nav1.6 currents (Nav1.6): No effects | inhibition of Nav1.5 R800D currents (Nav1.5 R800D): obviously inhibited
